target: T1, PI3Kγ (Homo sapiens, UniProt P48736); experiment: PI3Kγ in vitro kinase assay (32P-ATP, PIP2 lipid micelles, filter plate); assay type: biochemical; details: purified recombinant p101/p110γ protein with G protein β1/γ2 subunits; 20 μM ATP; 25 μM PIP2; 20 minutes at room temperature
T1 construct: HA; made in house; host or cells: Spodoptera frugiperda (Sf9) cells, baculovirus coinfection
Protocol: Spodtera frugiperda cells, grown in ESF921 media, were coinfected with baculovirus expressing a glu-tagged p101 and baculovirus expressing an HA-tagged p110γ, at a 3:1 ratio of p101 baculovirus to p110γ baculovirus. Sf9 cells were grown to 1×10^7 total cells/mL in 10 L bioreactors and harvested 48-72 hours post infection. Samples of infected cells were then tested for expression of p101/p110γ PI3 kinase by immunoprecipitation and Western Blot analysis methods (see below). To purify PI3Kγ, 4 volumes of room temperature hypotonic lysis buffer (1 mM MgCl2, 1 mM DTT, 5 mM EGTA, 1 mM Pefabloc, 0.5 μM aprotinin, 5 μM leupeptin, 2 μM pepstatin, 5 μM E64, pH 8) per gram of cell paste, was poured onto frozen cell pellets with stirring, then lysed in a nitrogen “bomb” at 400 psi (599HC […], Parr Instrument Co, Moline, Ill.). NaCl was added to 150 mM, and sodium cholate was added to 1% and mixed for another 45 minutes. The lysates were clarified by centrifugation for 25 minutes at 14,000 rpm. The lysates were then loaded over anti-glu-linked Protein-G Sepaharose beads (Covance Research Products, Richmond, Calif.) using 20 mL resin/50 g cell paste. The column was washed with 15 volumes of wash buffer (1 mM DTT, 0.2 mM EGTA, 1 mM Pefabloc, 0.5 μM aprotinin, 5 μM leupeptin, 2 μM pepstatin, 5 μM E64, 150 mM NaCl, 1% sodium cholate, pH 8). PI3Kγ was eluted with 6 column volumes of wash buffer that contain 100 μg/mL of a peptide that competes for binding of the glu tag. The column fractions with the eluted protein (determined by taking OD280 readings) were collected and dialyzed in 0.2 mM EGTA, 1 mM DTT, 1 mM Pefabloc, 5 μM leupeptin, 0.5% sodium cholate, 150 mM NaCl, and 50% glycerol, pH 8. The fractions were stored at -80° C. until further use. Spodtera frugiperda cells were coinfected with baculovirus expressing a glu-tagged G protein β1 and baculovirus expressing a […], at a 1:1 ratio of glu-tagged G protein β1 baculovirus to G protein β2 baculovirus. Sf9 cells are grown in 10 L bioreactors and harvested 48-72 hours post infection. Samples of infected cells were tested for G protein β1/β2 expression by Western Blot analysis, as described below. Cell lysates were homogenized and loaded onto a column of glu-tagged beads as in Biological Example 1 and competed off the column with a glu peptide and processed as described in Biological Example 1. The inhibitory properties of the compounds in Table 1 were assayed in an in vitro PI3K assay. In a 96-well polypropylene plate, each well was spotted with […] of 50 times the desired final concentration of compound in DMSO. Purified recombinant p101/p110γ protein (0.03 μg; 2.7 nM) and G protein β1/γ2 subunits (0.09 μg; 57.7 nM) for each reaction was combined in the assay buffer (30 mM HEPES, 100 mM NaCl, 1 mM EGTA, and 1 mM DTT). ATP and [γ-^32P-ATP] (0.09 μCi) were added to this mixture so that the final ATP concentration in the reaction was 20 μM. Lipid micelles were formed by sonicating phosphatidylinositol4,5-diphosphate (PIP2), phosphatidylethanolamine (PE), and Na-cholate in the assay buffer for 10 minutes, adding MgCl2 and incubating on ice for 20 minutes, for final concentrations of 25 μM PIP2, 300 μM PE, 0.02% Na-cholate, and 10 mM MgCl2 in the reaction. The reactions were started by adding equal volumes lipid and enzyme mixture in a total volume of 50 μL, allowed to run for 20 minutes at room temperature, and stopped with 100 μL 75 mM H3PO4. The lipid product was transferred to a glass fiber filter plate and washed with 75 mM H3PO4 several times. The presence of radioactive lipid product (PIP3) was measured by adding Wallac Optiphase mix to each well and counting in a Wallac 1450 Trilux plate reader (PerkinElmer Life Sciences Inc., Boston, Mass. 02118). The IC50 for each compound tested is reported in μM in Table 1: […]

T1 sequence (P48736 whole entry, species assumed): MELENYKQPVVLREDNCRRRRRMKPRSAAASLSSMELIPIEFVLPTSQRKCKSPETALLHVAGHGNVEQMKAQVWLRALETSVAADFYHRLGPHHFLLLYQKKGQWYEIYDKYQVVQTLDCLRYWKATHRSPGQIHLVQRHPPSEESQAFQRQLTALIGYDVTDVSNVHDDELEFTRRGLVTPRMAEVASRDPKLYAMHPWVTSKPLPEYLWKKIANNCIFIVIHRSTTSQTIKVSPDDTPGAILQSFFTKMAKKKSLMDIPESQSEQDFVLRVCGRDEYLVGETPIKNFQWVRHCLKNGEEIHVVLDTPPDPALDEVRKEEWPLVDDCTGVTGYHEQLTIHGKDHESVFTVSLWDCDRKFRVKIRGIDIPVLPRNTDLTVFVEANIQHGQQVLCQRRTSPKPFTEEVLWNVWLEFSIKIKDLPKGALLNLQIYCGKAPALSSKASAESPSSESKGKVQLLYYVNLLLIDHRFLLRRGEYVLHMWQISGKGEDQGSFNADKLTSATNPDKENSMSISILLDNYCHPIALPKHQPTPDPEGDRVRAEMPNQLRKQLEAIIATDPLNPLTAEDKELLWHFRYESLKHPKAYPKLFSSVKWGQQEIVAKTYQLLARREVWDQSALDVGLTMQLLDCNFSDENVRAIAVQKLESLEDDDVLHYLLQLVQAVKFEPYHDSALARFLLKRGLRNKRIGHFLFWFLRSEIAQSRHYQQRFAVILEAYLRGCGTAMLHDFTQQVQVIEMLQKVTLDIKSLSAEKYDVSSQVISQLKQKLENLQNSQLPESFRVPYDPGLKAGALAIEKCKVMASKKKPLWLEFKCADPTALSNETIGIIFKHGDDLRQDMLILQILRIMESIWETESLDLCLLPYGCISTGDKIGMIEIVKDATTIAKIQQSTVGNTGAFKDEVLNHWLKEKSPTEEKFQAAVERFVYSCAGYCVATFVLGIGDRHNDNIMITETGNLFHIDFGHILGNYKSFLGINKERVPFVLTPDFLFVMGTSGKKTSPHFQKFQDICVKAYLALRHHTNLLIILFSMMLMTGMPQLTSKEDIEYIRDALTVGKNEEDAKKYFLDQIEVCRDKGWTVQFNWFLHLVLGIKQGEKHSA
T1 sequence (Q8WYR1 whole entry partner, species assumed): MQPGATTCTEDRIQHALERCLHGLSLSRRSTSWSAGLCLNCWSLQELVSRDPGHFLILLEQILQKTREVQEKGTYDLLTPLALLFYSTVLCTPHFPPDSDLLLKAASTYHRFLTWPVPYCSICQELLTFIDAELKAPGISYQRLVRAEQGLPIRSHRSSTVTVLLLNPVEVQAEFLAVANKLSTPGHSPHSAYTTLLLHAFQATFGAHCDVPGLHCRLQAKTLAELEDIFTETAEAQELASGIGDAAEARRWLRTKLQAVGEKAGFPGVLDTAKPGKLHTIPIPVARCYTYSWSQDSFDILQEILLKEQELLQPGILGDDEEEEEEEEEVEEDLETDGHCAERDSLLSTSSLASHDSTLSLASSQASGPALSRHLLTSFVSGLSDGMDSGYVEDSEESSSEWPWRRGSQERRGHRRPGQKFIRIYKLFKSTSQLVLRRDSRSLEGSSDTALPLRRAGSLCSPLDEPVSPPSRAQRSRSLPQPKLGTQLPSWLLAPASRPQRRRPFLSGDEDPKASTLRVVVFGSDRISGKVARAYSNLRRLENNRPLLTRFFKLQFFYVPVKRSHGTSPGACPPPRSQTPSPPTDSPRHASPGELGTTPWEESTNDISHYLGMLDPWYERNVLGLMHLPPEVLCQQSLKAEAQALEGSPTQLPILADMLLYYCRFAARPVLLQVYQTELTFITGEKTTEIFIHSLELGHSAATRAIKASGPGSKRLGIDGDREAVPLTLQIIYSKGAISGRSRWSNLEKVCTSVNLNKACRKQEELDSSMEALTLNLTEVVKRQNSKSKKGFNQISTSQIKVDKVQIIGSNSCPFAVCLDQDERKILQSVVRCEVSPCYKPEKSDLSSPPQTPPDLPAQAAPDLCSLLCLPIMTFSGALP

Compound	IC50
COc1cc2c(Sc3ccc(CCC(=O)O)cc3)c(C(=O)Nc3nnn[nH]3)sc2cc1C [Example 57, 3-{4-[5-Methoxy-6-methyl-2-(1H-tetrazol-5-ylcarbamoyl)-benzo[b]thiophen-3-ylsulfanyl]-phenyl}-propionic acid]	575 nM
COc1cc2sc(C(=O)Nc3nnn[nH]3)c(Sc3ccc(C(=O)O)cc3)c2cc1C [Example 58, 4-[6-Methoxy-5-methyl-2-(1H-tetrazol-5-ylcarbamoyl)-benzo[b]thiophen-3-ylsulfanyl]-benzoic acid]	1340 nM
COc1cc2sc(C(=O)Nc3nnn[nH]3)c(Sc3ccc(CC(=O)O)cc3)c2cc1C [Example 59, {4-[6-Methoxy-5-methyl-2-(1H-tetrazol-5-ylcarbamoyl)-benzo[b]thiophen-3-ylsulfanyl]-phenyl}-acetic acid]	1320 nM
COc1cc2sc(C(=O)Nc3nnn[nH]3)c(SCc3ccc(C(=O)O)cc3)c2cc1C [Example 60, 4-[6-Methoxy-5-methyl-2-(1H-tetrazol-5-ylcarbamoyl)-benzo[b]thiophen-3-ylsulfanylmethyl]-benzoic acid]	495 nM
COc1cc2sc(C(=O)Nc3nnn[nH]3)c(Sc3ccc(CC(=O)O)cc3)c2cc1OC [Example 61, {4-[5,6-Dimethoxy-2-(1H-tetrazol-5-ylcarbamoyl)-benzo[b]thiophen-3-ylsulfanyl]-phenyl}-acetic acid]	2610 nM
COc1cc2sc(C(=O)Nc3nnn[nH]3)c(Sc3ccc(CCC(=O)O)cc3)c2cc1OC [Example 62, 3-{4-[5,6-Dimethoxy-2-(1H-tetrazol-5-ylcarbamoyl)-benzo[b]thiophen-3-ylsulfanyl]-phenyl}-propionic acid]	2670 nM
CCOc1ccc2sc(C(=O)Nc3nnn[nH]3)c(Sc3ccc(CC(=O)O)cc3)c2c1 [Example 63, {4-[5-Ethoxy-2-(1H-tetrazol-5-ylcarbamoyl)-benzo[b]thiophen-3-ylsulfanyl]-phenyl}-acetic acid]	2710 nM
CCOc1ccc2sc(C(=O)Nc3nnn[nH]3)c(Sc3ccc(CCC(=O)O)cc3)c2c1 [Example 64, 3-{4-[5-Ethoxy-2-(1H-tetrazol-5-ylcarbamoyl)-benzo[b]thiophen-3-ylsulfanyl]-phenyl}-propionic acid]	3620 nM
COCc1cc2sc(C(=O)Nc3nnn[nH]3)c(Sc3ccccc3)c2cc1OC [Example 65, 5-Methoxy-6-methoxymethyl-3-phenylsulfanyl-benzo[b]thiophene-2-carboxylic acid(1H-tetrazol-5-yl)-amide]	315 nM
COc1cc2sc(C(=O)Nc3nn[nH]n3)c(SCc3ccc(C#N)cc3)c2cc1OC [Example 66, 3-(4-Cyano-benzylsulfanyl)-5,6-dimethoxy-benzo[b]thiophene-2-carboxylic acid(2H-tetrazol-5-yl)-amide]	1170 nM
